From ChEMBL document CHEMBL5137044, “Expansion of the S-CN-DABO scaffold to exploit the impact on inhibitory activities against the non-nucleoside HIV-1 reverse transcriptase” (Eur J Med Chem, 2022)

Experiments:
[1] = system: Human immunodeficiency virus 1; assay: Antiviral activity against drug-resistant HIV-1 K103 N mutant infected in human MT4 cells assessed as reduction in virus-induced cytopathic effect incubated for 5 days by MTT assay; format: functional, organism-based; conditions: Human immunodeficiency virus 1, K103 N mutant, MT4, 120 h
[2] = Fold resistance, ratio of EC50 for antiviral activity against drug-resistant HIV-1 Y188L mutant infected in human MT4 cells to EC50 for antiviral activity against […] HIV-1 infected in human MT4 cells; format: functional
[3] = system: Human immunodeficiency virus 1; assay: Antiviral activity against drug-resistant HIV-1 Y188L mutant infected in human MT4 cells assessed as reduction in virus-induced cytopathic effect incubated for 5 days by MTT assay; format: functional, organism-based; conditions: Human immunodeficiency virus 1, Y188L mutant, MT4, 120 h
[4] = system: Human immunodeficiency virus 1; assay: Antiviral activity against drug-resistant HIV-1 L100I mutant infected in human MT4 cells assessed as reduction in virus-induced cytopathic effect incubated for 5 days by MTT assay; format: functional, organism-based; conditions: Human immunodeficiency virus 1, L100I mutant, MT4, 120 h
[5] = biological target: Human immunodeficiency virus type 1 reverse transcriptase (Human immunodeficiency virus 1, UniProt Q72547); assay: Inhibition of recombinant wild-type p66/p51 HIV-1 reverse transcriptase incubated for 40 mins by picogreen dye-based spectrofluorometric analysis
[6] = Selectivity index, ratio of CC50 for human MT4 cells to EC50 for antiviral activity against NNRTI resistant HIV-1 infected in human MT4 cells; format: toxicity, cell-based; conditions: read-out: Ratio CC50/EC50
[7] = Fold resistance, ratio of EC50 for antiviral activity against drug-resistant HIV-1 L100I mutant infected in human MT4 cells to EC50 for antiviral activity against […] HIV-1 infected in human MT4 cells; format: functional
[8] = system: Human immunodeficiency virus 1; assay: Antiviral activity against […] HIV-1 infected in human MT4 cells assessed as reduction in virus-induced cytopathic effect incubated for 5 days by MTT assay; format: functional, organism-based; conditions: Human immunodeficiency virus 1, MT4, 120 h
[9] = Cytotoxicity against human MT4 cells assessed as cell growth inhibition incubated for 5 days by MTT assay; format: toxicity, cell-based; conditions: time 5 day
[10] = Fold resistance, ratio of EC50 for antiviral activity against drug-resistant HIV-1 E138K mutant infected in human MT4 cells to EC50 for antiviral activity against […] HIV-1 infected in human MT4 cells; format: functional
[11] = system: Human immunodeficiency virus 1; assay: Antiviral activity against drug-resistant HIV-1 E138K mutant infected in human MT4 cells assessed as reduction in virus-induced cytopathic effect incubated for 5 days by MTT assay; format: functional, organism-based; conditions: Human immunodeficiency virus 1, E138K mutant, MT4, 120 h
[12] = Fold resistance, ratio of EC50 for antiviral activity against drug-resistant HIV-1 K103 N mutant infected in human MT4 cells to EC50 for antiviral activity against […] HIV-1 infected in human MT4 cells; format: functional
[13] = system: Human immunodeficiency virus 1; assay: Antiviral activity against drug-resistant HIV-1 Y181C mutant infected in human MT4 cells assessed as reduction in virus-induced cytopathic effect incubated for 5 days by MTT assay; format: functional, organism-based; conditions: Human immunodeficiency virus 1, Y181C mutant, MT4, 120 h
[14] = Fold resistance, ratio of EC50 for antiviral activity against drug-resistant HIV-1 Y181C mutant infected in human MT4 cells to EC50 for antiviral activity against […] HIV-1 infected in human MT4 cells; format: functional

Compound | EC50 [1] [µM] | Ratio EC50 [2] | EC50 [3] [µM] | EC50 [4] [µM] | IC50 [5] [µM] | selectivity ratio [6] | Ratio EC50 [7] | EC50 [8] [µM] | CC50 at 120 h [9] [µM] | Ratio EC50 [10] | EC50 [11] [µM] | Ratio EC50 [12] | EC50 [13] [µM] | Ratio EC50 [14]
Cc1c(C(C#N)c2ccccc2Cl)nc(SC(C)C)[nH]c1=O (stereo not given) | 9.91 | 807 | 54.9 | 1.78 | 0.079 | 1320 | 26 | 0.068 | 89.2 | 1 | 0.08 | 146 | 3.47 | 51
Cc1c(C(C#N)c2c(Cl)cccc2Cl)nc(SC(C)C)[nH]c1=O (stereo not given) | 6.13 | >750 | > 62.2 | 3.38 | 0.466 | 749 | 41 | 0.083 | 62.2 | 3 | 0.22 | >74 | 3.99 | 48
Cc1c(C(C#N)c2ccccn2)nc(SC(C)C)[nH]c1=O (stereo not given) | > 304 | >207 | > 304 | 45.9 | 9.4 | 207 | 31 | 1.47 | 304 | 3 | 3.8 | >207 | 51.2 | 35
Cc1c(C(C#N)c2cc(Cl)cc(Cl)c2)nc(SC(C)C)[nH]c1=O (stereo not given) | > 28.9 | >44 | > 28.9 | > 13.2 | 0.479 | 44 | >20 | 0.66 | 28.9 | 6 | 4.22 | >44 | 11.4 | 17
Cc1c(C(C#N)c2cc(F)cc(Cl)c2)nc(SC(C)C)[nH]c1=O (stereo not given) | 47.2 | >365 | > 139 | 19.1 | 0.716 | 363 | 50 | 0.38 | 139 | 5 | 1.99 | 124 | 12.5 | 33
Cc1cccc(C(C#N)c2nc(SC(C)C)[nH]c(=O)c2C)c1 (stereo not given) | 20.9 | 464 | 65.4 | 2.06 | 0.271 | 1180 | 15 | 0.141 | 167 | 3 | 0.37 | 148 | 4.41 | 31
Cc1c(C(C#N)c2ccccc2F)nc(SC(C)C)[nH]c1=O (stereo not given) | 10.6 | >2051 | > 113 | 3.53 | 0.099 | 2030 | 64 | 0.055 | 113 | 3 | 0.17 | 192 | 3.92 | 71
Cc1c(C(C#N)c2cccc(C(F)(F)F)c2)nc(SC(C)C)[nH]c1=O (stereo not given) | > 60.4 | >65 | > 69.2 | 12.1 | 2.71 | 65 | 11 | 1.06 | 69.2 | 3 | 2.71 | >57 | 9.98 | 9
COc1ccccc1C(C#N)c1nc(SC(C)C)[nH]c(=O)c1C (stereo not given) | 3.51 | 687 | 27.5 | 0.4 | 0.158 | > 9380 | 10 | 0.04 | > 379 | 2 | 0.09 | 88 | 1.91 | 48
Cc1c(C(C#N)c2cc(Cl)cc(C(F)(F)F)c2)nc(SC(C)C)[nH]c1=O (stereo not given) | > 23.1 | >6 | > 23.1 | > 23.1 | 3.52 | 6 | >6 | 4.17 | 23.1 | 3 | 10.9 | >6 | > 23.1 | >6
